According to patent US7579356B2, “Thia-tetraazaacenaphthylene kinase inhibitors” (Janssen Pharmaceutica NV, priority 2005, dated 2009):
pIC50: −log10 of the molar value. Values joined by “and” are separate entries in the source; they are usually repeats but may differ in a detail not shown here. Equal values may be shown once.

How the values were obtained:
c-Src kinase (human) = molecular target: T1, c-Src kinase (human) (Homo sapiens, UniProt P12931); experiment: c-Src Kinase Assay; type: biochemical; conditions: for inhibition at 2 µM / c-Src % Inhibition: test concentration of 2 μM, multiple values are separate assay results; for pIC50: read-out: c-Src IC50 (in parentheses); for c-Src % Inhibition: 2 µM
T1 construct: purchased Upstate Biotechnology, Lake Placid, N.Y
In short: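 Inhibition was read as 33P incorporation, counted on P30 filtermats, after a 40 min, 30° C reaction. Human c-Src acted on 100 μM Cdc2 peptide with 5 μM ATP (final), pH 7.0 MOPS/MgCl2. Values are percent inhibition at 2 μM compound, or IC50 where determined.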

EGFR = molecular target: T2, EGFR (Homo sapiens, UniProt P00533); experiment: EGFR Kinase Assay; type: biochemical; conditions: for pIC50: GST-EGFR, ATP 5 μM; for inhibition at 2 µM: test concentration of 2 μM, compounds without an IC50, read-out: EGFR inhibition in percent
T2 construct: The intracellular portion of EGFR started at nucleotide 2189 (corresponding to amino acid 667) and ended at the termination codon; made in house; host or cells: Sf9 insect cells (baculovirus)
In short: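 GST-fused human EGFR intracellular domain (from aa 667), Sf9-expressed, phosphorylated biotinylated polyGluTyr with 5 μM ATP plus γ-33P ATP in Tris pH 8.0, MgCl2, vanadate, 1 mM DTT, 1 h at 30 °C. Streptavidin Flashplate scintillation read; triplicate 16-point half-log series from 200 uM; IC50 from % inhibition vs log concentration, else % inhibition at 2 μM.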

T2 sequence (P00533 669-1210 limits assumed): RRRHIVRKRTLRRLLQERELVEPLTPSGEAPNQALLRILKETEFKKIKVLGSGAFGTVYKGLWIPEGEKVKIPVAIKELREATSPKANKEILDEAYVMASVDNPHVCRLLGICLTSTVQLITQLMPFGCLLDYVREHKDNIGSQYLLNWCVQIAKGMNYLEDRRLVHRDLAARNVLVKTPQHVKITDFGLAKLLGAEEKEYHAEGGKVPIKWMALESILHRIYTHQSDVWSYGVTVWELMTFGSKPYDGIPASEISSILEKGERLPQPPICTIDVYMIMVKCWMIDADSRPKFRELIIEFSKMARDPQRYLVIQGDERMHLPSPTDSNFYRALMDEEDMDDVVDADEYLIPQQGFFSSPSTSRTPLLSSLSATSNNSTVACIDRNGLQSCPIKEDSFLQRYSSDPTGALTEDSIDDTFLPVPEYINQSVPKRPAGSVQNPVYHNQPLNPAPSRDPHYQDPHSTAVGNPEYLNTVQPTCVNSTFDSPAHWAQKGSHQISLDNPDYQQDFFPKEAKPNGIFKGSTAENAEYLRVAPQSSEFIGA
T1 sequence (P12931 whole entry): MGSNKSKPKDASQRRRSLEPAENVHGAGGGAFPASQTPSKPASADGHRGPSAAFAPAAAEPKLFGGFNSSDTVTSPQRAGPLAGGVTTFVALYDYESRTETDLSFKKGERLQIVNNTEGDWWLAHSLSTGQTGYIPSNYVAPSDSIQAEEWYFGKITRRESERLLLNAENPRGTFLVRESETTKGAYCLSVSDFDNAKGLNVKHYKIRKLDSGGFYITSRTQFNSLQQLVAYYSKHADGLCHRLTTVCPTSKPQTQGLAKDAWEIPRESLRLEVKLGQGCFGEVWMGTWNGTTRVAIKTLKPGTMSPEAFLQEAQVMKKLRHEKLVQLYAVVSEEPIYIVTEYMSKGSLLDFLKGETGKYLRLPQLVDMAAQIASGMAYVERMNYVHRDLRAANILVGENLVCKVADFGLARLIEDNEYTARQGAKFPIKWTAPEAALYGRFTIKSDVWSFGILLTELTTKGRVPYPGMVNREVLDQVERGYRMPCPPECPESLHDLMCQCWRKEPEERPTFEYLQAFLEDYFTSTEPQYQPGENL

| inhibition at 2 µM (c-Src kinase (human)) [%] | pIC50 (EGFR) | pIC50 (c-Src kinase (human)) | c-Src % Inhibition (c-Src kinase (human)) | inhibition at 2 µM (EGFR) [%] | SMILES |
| --- | --- | --- | --- | --- | --- |
| 41 | 7.15 | – | – | – | O=C(NCCN1CCOCC1)c1sc2ncnc3c2c1NC(=O)N3c1ccc2c(ccn2Cc2cccc(F)c2)c1 [Cpd 93, 5-[1-(3-fluoro-benzyl)-1H-indol-5-yl]-4-oxo-4,5-dihydro-3H-1-thia-3,5,6,8-tetraaza-acenaphthylene-2-carboxylic acid (2-morpholin-4-yl-ethyl)-amide] |
| -39 | 6.58 | – | – | – | O=C(Nc1ccc(N2CCOCC2)cc1)c1sc2ncnc3c2c1NC(=O)N3c1ccc2c(ccn2Cc2cccc(F)c2)c1 [Cpd 94, 5-[1-(3-fluoro-benzyl)-1H-indol-5-yl]-4-oxo-4,5-dihydro-3H-1-thia-3,5,6,8-tetraaza-acenaphthylene-2-carboxylic acid (4-morpholin-4-yl-phenyl)-amide] |
| -15 | 7.16 | – | – | – | O=C(NCCCN1CCOCC1)c1sc2ncnc3c2c1NC(=O)N3c1ccc2c(ccn2Cc2cccc(F)c2)c1 [Cpd 95, 5-[1-(3-fluoro-benzyl)-1H-indol-5-yl]-4-oxo-4,5-dihydro-3H-1-thia-3,5,6,8-tetraaza-acenaphthylene-2-carboxylic acid (3-morpholin-4-yl-propyl)-amide] |
| – | 8.00 | < 3.70 | – | – | O=C(Nc1ccc(CN2CCCCC2)cc1)c1sc2ncnc3c2c1NC(=O)N3c1ccc(Oc2ccccc2)cc1 [Cpd 96, 4-oxo-5-(4-phenoxy-phenyl)-4,5-dihydro-3H-1-thia-3,5,6,8-tetraaza-acenaphthylene-2-carboxylic acid (4-piperidin-1-ylmethyl-phenyl)-amide] |
| – | 7.89 | ~5.70 | – | – | O=C(Nc1ccc(CN2CCOCC2)cc1)c1sc2ncnc3c2c1NC(=O)N3c1ccc(Oc2ccccc2)cc1 [Cpd 97, 4-oxo-5-(4-phenoxy-phenyl)-4,5-dihydro-3H-1-thia-3,5,6,8-tetraaza-acenaphthylene-2-carboxylic acid (4-morpholin-4-ylmethyl-phenyl)-amide] |
| – | 7.66 | 6.23 | 63% and 41% | – | CN1CCN(Cc2ccc(NC(=O)c3sc4ncnc5c4c3NC(=O)N5c3ccc(Oc4ccccc4)cc3)cc2)CC1 [Cpd 98, 4-oxo-5-(4-phenoxy-phenyl)-4,5-dihydro-3H-1-thia-3,5,6,8-tetraaza-acenaphthylene-2-carboxylic acid [4-(4-methyl-piperazin-1-ylmethyl)-phenyl]-amide] |
| – | 7.82 | < 3.70 | – | – | COc1cc(NC(=O)c2sc3ncnc4c3c2NC(=O)N4c2ccc(Oc3ccccc3)cc2)ccc1OCCN1CCCCC1 [Cpd 100, 4-oxo-5-(4-phenoxy-phenyl)-4,5-dihydro-3H-1-thia-3,5,6,8-tetraaza-acenaphthylene-2-carboxylic acid [3-methoxy-4-(2-piperidin-1-yl-ethoxy)-phenyl]-amide] |
| – | – | – | 3% and 12% | 17 | CCOC(=O)c1sc2ncnc3c2c1NC(=O)N3c1ccc(C)c(Br)c1 [Cpd 102, 5-(3-bromo-4-methyl-phenyl)-4-oxo-4,5-dihydro-3H-1-thia-3,5,6,8-tetraaza-acenaphthylene-2-carboxylic acid ethyl ester] |
| 14 | – | – | 18% | 21 | CCOC(=O)c1sc2ncnc3c2c1NC(=O)N3c1cc(Br)ccc1C [Cpd 103, 5-(5-bromo-2-methyl-phenyl)-4-oxo-4,5-dihydro-3H-1-thia-3,5,6,8-tetraaza-acenaphthylene-2-carboxylic acid ethyl ester] |
| 55 | – | 5.74 | 60% | 41 | O=C(Nc1ccc(CN2CCOCC2)cc1)c1sc2ncnc3c2c1NC(=O)N3c1c(Cl)cccc1Cl [Cpd 104, 5-(2,6-dichloro-phenyl)-4-oxo-4,5-dihydro-3H-1-thia-3,5,6,8-tetraaza-acenaphthylene-2-carboxylic acid (4-morpholin-4-ylmethyl-phenyl)-amide] |
| 19 | 7.37 | – | – | – | Cc1ccc(N2C(=O)Nc3c(C(=O)Nc4ccc(CN5CCOCC5)cc4)sc4ncnc2c34)cc1Br [Cpd 108, 5-(3-bromo-4-methyl-phenyl)-4-oxo-4,5-dihydro-3H-1-thia-3,5,6,8-tetraaza-acenaphthylene-2-carboxylic acid (4-morpholin-4-ylmethyl-phenyl)-amide] |
| 31 | 6.46 | – | – | – | Cc1ccc(Br)cc1N1C(=O)Nc2c(C(=O)Nc3ccc(CN4CCOCC4)cc3)sc3ncnc1c23 [Cpd 109, 5-(5-bromo-2-methyl-phenyl)-4-oxo-4,5-dihydro-3H-1-thia-3,5,6,8-tetraaza-acenaphthylene-2-carboxylic acid (4-morpholin-4-ylmethyl-phenyl)-amide] |
| 16 | 7.47 | – | – | – | O=C(Nc1ccc(CN2CCOCC2)cc1)c1sc2ncnc3c2c1NC(=O)N3c1ccc(Oc2ccc(F)cc2)cc1 [Cpd 110, 5-[4-(4-fluoro-phenoxy)-phenyl]-4-oxo-4,5-dihydro-3H-1-thia-3,5,6,8-tetraaza-acenaphthylene-2-carboxylic acid (4-morpholin-4-ylmethyl-phenyl)-amide] |
| 68 | 7.68 | – | 54% | – | O=C(Nc1ccc(CN2CCOCC2)cc1)c1sc2ncnc3c2c1NC(=O)N3c1ccc(Oc2ccccc2)c(F)c1 [Cpd 113, 5-(3-fluoro-4-phenoxy-phenyl)-4-oxo-4,5-dihydro-3H-1-thia-3,5,6,8-tetraaza-acenaphthylene-2-carboxylic acid (4-morpholin-4-ylmethyl-phenyl)-amide] |
| -7 | 6.84 | – | – | – | Cc1ccc(N2C(=O)Nc3c(C(=O)NC4CCN(C)CC4)sc4ncnc2c34)cc1Br [Cpd 116, 5-(3-bromo-4-methyl-phenyl)-4-oxo-4,5-dihydro-3H-1-thia-3,5,6,8-tetraaza-acenaphthylene-2-carboxylic acid (1-methyl-piperidin-4-yl)-amide] |
| 25 | 5.75 | – | – | – | Cc1ccc(Br)cc1N1C(=O)Nc2c(C(=O)NC3CCN(C)CC3)sc3ncnc1c23 [Cpd 117, 5-(5-bromo-2-methyl-phenyl)-4-oxo-4,5-dihydro-3H-1-thia-3,5,6,8-tetraaza-acenaphthylene-2-carboxylic acid (1-methyl-piperidin-4-yl)-amide] |
| 15 | 6.88 | – | – | – | CN1CCC(NC(=O)c2sc3ncnc4c3c2NC(=O)N4c2ccc(Oc3ccc(F)cc3)cc2)CC1 [Cpd 118, 5-[4-(4-fluoro-phenoxy)-phenyl]-4-oxo-4,5-dihydro-3H-1-thia-3,5,6,8-tetraaza-acenaphthylene-2-carboxylic acid (1-methyl-piperidin-4-yl)-amide] |
| 77 | – | 6.26 | – | 11 | O=C(Nc1ccc(CN2CCOCC2)cc1)c1sc2ncnc3c2c1NC(=O)N3c1ccc(N2CCOCC2)cc1 [Cpd 123, 5-(4-morpholin-4-yl-phenyl)-4-oxo-4,5-dihydro-3H-1-thia-3,5,6,8-tetraaza-acenaphthylene-2-carboxylic acid (4-morpholin-4-ylmethyl-phenyl)-amide] |
